In PubChem BioAssay AID1918957 (Molecular Pharmacology Branch, DTP, NCI, 2023):
pIC50: −log10 of the molar value. Where “and” joins values, the source holds several entries; their conditions need not be identical. Identical values can stand only once.

Test system: NCI-H1876 complex spheroid viability
Test: Anticancer human tumor NCI-H1876 cell line growth inhibition [LSD1];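 further: spheroids exposed to compounds for one week before readout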;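 on viability, T/C: 100% = DMSO vehicle-treated spheroids so lower means fewer viable cells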
Details: for viability, T/C: stronger effect = lower value
Method in brief: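 Drug combinations with the LSD1 inhibitor iadademstat tested on tumor cells co-cultured as spheroids with endothelial cells and mesenchymal stem cells. Concentrations descended in half-log increments from clinical Cmax or 10 microM.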

[1] = curve of first compound, second compound 0.1 µM
[2] = curve of first compound, second compound 0.316 µM
[3] = curve of first compound, second compound 1 µM
[4] = curve of first compound, second compound 3.16 µM
[5] = curve of first compound, second compound 10 µM

Nc1ccn(C2OC(CO)C(O)C2(F)F)c(=O)n1 (stereo unspecified) + NC1CC1c1ccc(-c2cccc(O)c2)cc1
pIC50 [1]: 8.20
pIC50 [2]: 8.21
pIC50 [3]: 8.20
pIC50 [4]: 8.20
pIC50 [5]: 8.16
viability, T/C (second compound 0.1 µM, first compound 0.000949 µM): 104%
viability, T/C (second compound 0.1 µM, first compound 0.003 µM): 93.9%
viability, T/C (second compound 0.1 µM, first compound 0.00949 µM): 24.8%
viability, T/C (second compound 0.1 µM, first compound 0.03 µM): 9.9%
viability, T/C (second compound 0.1 µM, first compound 0.0949 µM): 8.25%
viability, T/C (second compound 0.1 µM, first compound 0.3 µM): 7.07%
viability, T/C (second compound 0.316 µM, first compound 0.000949 µM): 103%
viability, T/C (second compound 0.316 µM, first compound 0.003 µM): 91.5%
viability, T/C (second compound 0.316 µM, first compound 0.00949 µM): 26%
viability, T/C (second compound 0.316 µM, first compound 0.03 µM): 10.9%
viability, T/C (second compound 0.316 µM, first compound 0.0949 µM): 7.72%
viability, T/C (second compound 0.316 µM, first compound 0.3 µM): 7.02%
viability, T/C (second compound 1 µM, first compound 0.000949 µM): 108%
viability, T/C (second compound 1 µM, first compound 0.003 µM): 87.2%
viability, T/C (second compound 1 µM, first compound 0.00949 µM): 28.7%
viability, T/C (second compound 1 µM, first compound 0.03 µM): 9.78%
viability, T/C (second compound 1 µM, first compound 0.0949 µM): 8.57%
viability, T/C (second compound 1 µM, first compound 0.3 µM): 7.79%
viability, T/C (second compound 3.16 µM, first compound 0.000949 µM): 104%
viability, T/C (second compound 3.16 µM, first compound 0.003 µM): 87%
viability, T/C (second compound 3.16 µM, first compound 0.00949 µM): 29.9%
viability, T/C (second compound 3.16 µM, first compound 0.03 µM): 10.1%
viability, T/C (second compound 3.16 µM, first compound 0.0949 µM): 8.03%
viability, T/C (second compound 3.16 µM, first compound 0.3 µM): 7.36%
viability, T/C (second compound 10 µM, first compound 0.000949 µM): 101%
viability, T/C (second compound 10 µM, first compound 0.003 µM): 91.4%
viability, T/C (second compound 10 µM, first compound 0.00949 µM): 34%
viability, T/C (second compound 10 µM, first compound 0.03 µM): 13.2%
viability, T/C (second compound 10 µM, first compound 0.0949 µM): 10.4%
viability, T/C (second compound 10 µM, first compound 0.3 µM): 11.8%

COc1ccc([C@@H](O)c2cc(-c3ncnc4cc(N5CCOCC5)ccc34)c(F)cc2Cl)nn1 + NC1CCC(NC2CC2c2ccccc2)CC1
pIC50 [1]: 5.51
pIC50 [2]: 5.46
pIC50 [3]: 5.42
pIC50 [4]: 5.46
pIC50 [5]: 5.50
viability, T/C (second compound 0.1 µM, first compound 0.0316 µM): 109%
viability, T/C (second compound 0.1 µM, first compound 0.1 µM): 97.4%
viability, T/C (second compound 0.1 µM, first compound 0.316 µM): 109%
viability, T/C (second compound 0.1 µM, first compound 1 µM): 91.2%
viability, T/C (second compound 0.1 µM, first compound 3.16 µM): 49.2%
viability, T/C (second compound 0.1 µM, first compound 10 µM): 23.4%
viability, T/C (second compound 0.316 µM, first compound 0.0316 µM): 112%
viability, T/C (second compound 0.316 µM, first compound 0.1 µM): 105%
viability, T/C (second compound 0.316 µM, first compound 0.316 µM): 95.8%
viability, T/C (second compound 0.316 µM, first compound 1 µM): 85.3%
viability, T/C (second compound 0.316 µM, first compound 3.16 µM): 50.7%
viability, T/C (second compound 0.316 µM, first compound 10 µM): 21.3%
viability, T/C (second compound 1 µM, first compound 0.0316 µM): 113%
viability, T/C (second compound 1 µM, first compound 0.1 µM): 107%
viability, T/C (second compound 1 µM, first compound 0.316 µM): 99.7%
viability, T/C (second compound 1 µM, first compound 1 µM): 84.7%
viability, T/C (second compound 1 µM, first compound 3.16 µM): 53.9%
viability, T/C (second compound 1 µM, first compound 10 µM): 24.5%
viability, T/C (second compound 3.16 µM, first compound 0.0316 µM): 113%
viability, T/C (second compound 3.16 µM, first compound 0.1 µM): 113%
viability, T/C (second compound 3.16 µM, first compound 0.316 µM): 94.3%
viability, T/C (second compound 3.16 µM, first compound 1 µM): 76.4%
viability, T/C (second compound 3.16 µM, first compound 3.16 µM): 54.2%
viability, T/C (second compound 3.16 µM, first compound 10 µM): 21.9%
viability, T/C (second compound 10 µM, first compound 0.0316 µM): 101%
viability, T/C (second compound 10 µM, first compound 0.1 µM): 110%
viability, T/C (second compound 10 µM, first compound 0.316 µM): 94.2%
viability, T/C (second compound 10 µM, first compound 1 µM): 70.9%
viability, T/C (second compound 10 µM, first compound 3.16 µM): 53.3%
viability, T/C (second compound 10 µM, first compound 10 µM): 26%

CC(C)CC(NC(=O)CNC(=O)c1cc(Cl)ccc1Cl)B1OC(=O)CC(CC(=O)O)(C(=O)O)O1 (stereo unspecified)
viability, T/C (compound 0.000316 µM): 102% and 97.5%
viability, T/C (compound 0.001 µM): 98.9% and 91.9%
viability, T/C (compound 0.00316 µM): 90.3% and 96%
viability, T/C (compound 0.01 µM): 52.4% and 36.7%
viability, T/C (compound 0.0316 µM): 7.69% and 2.11%
viability, T/C (compound 0.1 µM): 15.7% and 0.34%
pIC50 (curve of compound): 7.99 and 8.11

COc1ccc([C@@H](O)c2cc(-c3ncnc4cc(N5CCOCC5)ccc34)c(F)cc2Cl)nn1
viability, T/C (compound 0.0316 µM): 93.6% and 98%
viability, T/C (compound 0.1 µM): 101% and 97.7%
viability, T/C (compound 0.316 µM): 91.2% and 85.7%
viability, T/C (compound 1 µM): 84.5% and 68.1%
viability, T/C (compound 3.16 µM): 59.4% and 41.1%
viability, T/C (compound 10 µM): 25.1% and 10.8%
pIC50 (curve of compound): 5.36 and 5.67

CC(C)c1c(-c2ccccc2)nc2c(C#N)c[nH]n2c1=O
viability, T/C (compound 0.0316 µM): 93.8% and 104%
viability, T/C (compound 0.1 µM): 94.6% and 101%
viability, T/C (compound 0.316 µM): 92.2% and 103%
viability, T/C (compound 1 µM): 92% and 102%
viability, T/C (compound 3.16 µM): 89.2% and 94.4%
viability, T/C (compound 10 µM): 27.8% and 33.1%
pIC50 (curve of compound): 5.18 and 5.14
